{"source": "patent US8445407B2", "about": "“Herbicidal tetrahydrophthalimides” (BASF SE, priority 2009, dated 2013)", "key": {"[1]": {"system": "DIGSA", "test": "greenhouse post-emergence herbicidal activity", "assay_type": "in vivo, Digitaria sanguinales", "conditions": "scale 0 to 100", "excerpt": "(§1) The culture containers used were plastic flowerpots containing loamy sand with approximately 3.0% of humus as the substrate. The seeds of the test plants were sown separately for each species.\n(§2) For the post-emergence treatment, the test plants were first grown to a height of 3 to 15 cm, depending on the plant habit, and only then treated with the active ingredients which had been suspended or emulsified in water. For this purpose, the test plants were either sown directly and grown in the same containers, or they were first grown separately as seedlings and transplanted into the test containers a few days prior to treatment.\n(§3) Depending on the species, the plants were kept at 10-25° C. or 20-35° C. The test period extended over 2 to 4 weeks. During this time, the plants were tended, and their response to the individual treatments was evaluated.\n(§4) Evaluation was carried out using a scale from 0 to 100. 100 means no emergence of the plants, or complete destruction of at least the aerial moieties, and 0 means no damage, or normal course of growth. A good herbicidal activity is given at values of at least 70 and a very good herbicidal activity is given at values of at least 85."}, "[2]": {"system": "BRAPL", "test": "greenhouse post-emergence herbicidal activity", "assay_type": "in vivo, Brachiaria plantaginea", "conditions": "scale 0 to 100", "excerpt": "as §1, §2, §3, §4"}, "[3]": {"system": "ABUTH", "test": "greenhouse pre-emergence herbicidal activity", "assay_type": "in vivo, Abutilon theophrasti", "conditions": "scale 0 to 100", "excerpt": "as §1\n(§5) For the pre-emergence treatment, the active ingredients, which had been suspended or emulsified in water, were applied directly after sowing by means of finely distributing nozzles. The containers were irrigated gently to promote germination and growth and subsequently covered with transparent plastic hoods until the plants had rooted. This cover caused uniform germination of the test plants, unless this has been impaired by the active ingredients.\nas §3, §4"}, "[4]": {"system": "PANDI", "test": "greenhouse pre-emergence herbicidal activity", "assay_type": "in vivo, Panicum dichotomiflorun", "conditions": "scale 0 to 100", "excerpt": "as §1, §5, §3, §4"}, "[5]": {"system": "SETFA", "test": "greenhouse post-emergence herbicidal activity", "assay_type": "in vivo, Setaria faberi", "conditions": "scale 0 to 100", "excerpt": "as §1, §2, §3, §4"}, "[6]": {"system": "SETVI", "test": "greenhouse post-emergence herbicidal activity", "assay_type": "in vivo, Setaria viridis", "conditions": "scale 0 to 100", "excerpt": "as §1, §2, §3, §4"}, "[7]": {"system": "ECHCG", "test": "greenhouse post-emergence herbicidal activity", "assay_type": "in vivo, Echinocloa crus-galli", "conditions": "scale 0 to 100", "excerpt": "as §1, §2, §3, §4"}, "[8]": {"system": "STEME", "test": "greenhouse pre-emergence herbicidal activity", "assay_type": "in vivo, Stellaria media", "conditions": "scale 0 to 100", "excerpt": "as §1, §5, §3, §4"}, "[9]": {"system": "SETVI", "test": "greenhouse pre-emergence herbicidal activity", "assay_type": "in vivo, Setaria viridis", "conditions": "scale 0 to 100", "excerpt": "as §1, §5, §3, §4"}, "[10]": {"system": "LAMAM", "test": "greenhouse pre-emergence herbicidal activity", "assay_type": "in vivo, Lamium amplexicaule", "conditions": "scale 0 to 100", "excerpt": "as §1, §5, §3, §4"}, "[11]": {"system": "Abutilon theophrasti", "test": "greenhouse post-emergence herbicidal activity", "assay_type": "in vivo", "conditions": "6.25 g/ha, post-emergence method", "excerpt": "as §1, §2, §3, §4"}, "[12]": {"system": "Ambrosia elatior", "test": "greenhouse post-emergence herbicidal activity", "assay_type": "in vivo", "conditions": "6.25 g/ha, post-emergence method", "excerpt": "as §1, §2, §3, §4"}, "[13]": {"system": "Chenopodium album", "test": "greenhouse post-emergence herbicidal activity", "assay_type": "in vivo", "conditions": "6.25 g/ha, post-emergence method", "excerpt": "as §1, §2, §3, §4"}, "[14]": {"system": "Pharbitis purpurea", "test": "greenhouse post-emergence herbicidal activity", "assay_type": "in vivo", "conditions": "6.25 g/ha, post-emergence method", "excerpt": "as §1, §2, §3, §4"}, "[15]": {"system": "Amaranthus retroflexus", "test": "greenhouse pre-emergence herbicidal activity", "assay_type": "in vivo", "conditions": "6.25 g/ha, pre-emergence method", "excerpt": "as §1, §5, §3, §4"}, "[16]": {"system": "Erigeron canadensis", "test": "greenhouse pre-emergence herbicidal activity", "assay_type": "in vivo", "conditions": "6.25 g/ha, pre-emergence method", "excerpt": "as §1, §5, §3, §4"}}, "data": [{"smiles": "Cc1cnc(C2=NC(=O)C(C)(C(C)C)N2)c(C(=O)O)c1", "note": "(stereo not drawn) [B.30, imazapic, reference compound]", "values": [{"measurement": "herbicidal activity against DIGSA found", "setting": "[1]; B.30 10 g/ha a.s.", "value": 85}, {"measurement": "herbicidal activity against BRAPL found", "setting": "[2]; B.30 10 g/ha a.s.", "value": 70}]}, {"smiles": "CC(C)N(C)S(=O)(=O)NC(=O)c1cc(-n2c(=O)cc(C(F)(F)F)n(C)c2=O)c(F)cc1Cl", "note": "[B.76, saflufenacil, reference compound]", "values": [{"measurement": "herbicidal activity against ABUTH found", "setting": "[3]; B.76 6.25 g/ha a.s.", "value": 75}, {"measurement": "herbicidal activity against PANDI found", "setting": "[4]; B.76 6.25 g/ha a.s.", "value": 55}, {"measurement": "herbicidal activity against SETFA found", "setting": "[5]; B.76 12.5 g/ha a.s.", "value": 30}, {"measurement": "herbicidal activity against SETVI found", "setting": "[6]; B.76 12.5 g/ha a.s.", "value": 40}]}, {"smiles": "CC(C)N.O=C(O)CNCP(=O)(O)O", "note": "[B.97, glyphosate-isopropylammonium, reference compound]", "values": [{"measurement": "herbicidal activity against ECHCG found", "setting": "[7]; B.97 135 g/ha a.s.", "value": 85}]}, {"smiles": "CCC(CC)Nc1c([N+](=O)[O-])cc(C)c(C)c1[N+](=O)[O-]", "note": "[B.102, pendimethalin, reference compound]", "values": [{"measurement": "herbicidal activity against STEME found", "setting": "[8]; B.102 400 g/ha a.s.", "value": 75}]}, {"smiles": "COC[C@H](C)N(C(=O)CCl)c1c(C)csc1C", "note": "[B.107, dimethenamid-P, reference compound]", "values": [{"measurement": "herbicidal activity against SETVI found", "setting": "[9]; B.107 15 g/ha a.s.", "value": 70}, {"measurement": "herbicidal activity against PANDI found", "setting": "[4]; B.107 15 g/ha a.s.", "value": 95}]}, {"smiles": "Cn1nc(C(F)(F)F)c(CS(=O)(=O)C2=NOC(C)(C)C2)c1OC(F)F", "note": "[B.117, pyroxasulfone, reference compound]", "values": [{"measurement": "herbicidal activity against LAMAM found", "setting": "[10]; B.117 6.25 g/ha a.s.", "value": 35}, {"measurement": "herbicidal activity against STEME found", "setting": "[8]; B.117 6.25 g/ha a.s.", "value": 60}]}, {"smiles": "C#CCN1C(=O)C(F)(F)Oc2cc(F)c(N3C(=O)C4=C(CCCC4)C3=O)cc21", "note": "[Ia18, 2-(2,2,7-Trifluoro-3-oxo-4-prop-2-ynyl-3,4-dihydro-2H-benzo[1,4]oxazin-6-yl)-4,5,6,7-tetrahydro-isoindole-1,3-dione]", "values": [{"measurement": "herbicidal activity against ABUTH found", "setting": "[3]; Ia18 12.5 g/ha a.s.", "value": 55}, {"measurement": "herbicidal activity against SETVI found", "setting": "[9]; Ia18 25 g/ha a.s.", "value": 90}, {"measurement": "herbicidal activity against DIGSA found", "setting": "[1]; Ia18 6.25 g/ha a.s.", "value": 20}, {"measurement": "herbicidal activity against PANDI found", "setting": "[4]; Ia18 12.5 g/ha a.s.", "value": 70}, {"measurement": "herbicidal activity against PANDI found", "setting": "[4]; Ia18 25 g/ha a.s.", "value": 95}, {"measurement": "herbicidal activity against LAMAM found", "setting": "[10]; Ia18 12.5 g/ha a.s.", "value": 80}, {"measurement": "herbicidal activity against SETFA found", "setting": "[5]; Ia18 6.25 g/ha a.s.", "value": 70}, {"measurement": "herbicidal activity against Abutilon theophrasti", "setting": "[11]", "value": "very good herbicidal activity (a very good herbicidal activity is given at values of at least 85)"}, {"measurement": "herbicidal activity against Ambrosia elatior", "setting": "[12]", "value": "very good herbicidal activity (a very good herbicidal activity is given at values of at least 85)"}, {"measurement": "herbicidal activity against Chenopodium album", "setting": "[13]", "value": "very good herbicidal activity (a very good herbicidal activity is given at values of at least 85)"}, {"measurement": "herbicidal activity against Pharbitis purpurea", "setting": "[14]", "value": "very good herbicidal activity (a very good herbicidal activity is given at values of at least 85)"}, {"measurement": "herbicidal activity against BRAPL found", "setting": "[2]; Ia18 6.25 g/ha a.s.", "value": 25}, {"measurement": "herbicidal activity against SETVI found", "setting": "[6]; Ia18 6.25 g/ha a.s.", "value": 55}, {"measurement": "herbicidal activity against Amaranthus retroflexus", "setting": "[15]", "value": "very good herbicidal activity (a very good herbicidal activity is given at values of at least 85)"}, {"measurement": "herbicidal activity against Erigeron canadensis", "setting": "[16]", "value": "very good herbicidal activity (a very good herbicidal activity is given at values of at least 85)"}, {"measurement": "herbicidal activity against ECHCG found", "setting": "[7]; Ia18 6.25 g/ha a.s.", "value": 30}, {"measurement": "herbicidal activity against STEME found", "setting": "[8]; Ia18 12.5 g/ha a.s.", "value": 65}, {"measurement": "herbicidal activity against STEME found", "setting": "[8]; Ia18 13 g/ha a.s.", "value": 65}]}]}
